Assay [1] addresses Arg539Lys rat TRPV2 (Rattus norvegicus, UniProt Q9WUD2, R539K). The procedure: (§1) Nanofectin (PAA, Pasching, Austria) was used to transfect HEK293T cells with WT rat TRPV2, Arg535Lys rat TRPV2, Arg539Lys rat TRPV2, His521Ala rat TRPV2, His521Asn rat TRPV2, His521Ala/Arg539Lys rat TRPV2, Thr522Ala rat TRPV2 and Tyr525Ala rat TRPV2. Mutants were generated according to the instructions of the manufacturer by site directed mutagenesis with the quick-change lightning site-directed mutagenesis kit (Aglient, Waldbronn, Germany). […] Cells were cultured at 37 °C with 5% CO2 in Dulbecco’s modified Eagle medium nutrient mixture F12 (DMEM/F12 Gibco/Invitrogen, Darmstadt, Germany) and supplemented with 10% fetal bovine serum, (Biochrom, Berlin, Germany).
(§2) Whole-cell voltage clamp was performed with an EPC10 USB HEKA amplifier (HEKA Electronik, Lamprecht, Germany), much as previously described. Signals were low passed at 1 kHz and sampled at 2–10 kHz. Patch pipettes were pulled from borosilicate glass tubes (TW150F-3; World Precision Instruments, Berlin, Germany) to give a resistance of about 3 MΩ. Cells were held at −60 mV and all recordings were performed at room temperature. The external solution contained: 140 mM NaCl, 5 mM KCl, 2 mM MgCl2, 5 mM EGTA, 10 mM glucose, and 10 mM HEPES, pH 7.4 (adjusted with NaOH). Calcium was omitted in order to avoid desensitization. The standard pipette solution contained: 140 mM KCl, 2 mM MgCl2, 5 mM EGTA and 10 mM HEPES, pH 7.4 (adjusted with KOH). A gravity-driven glass multi-barrel perfusion system was used to bath apply solutions. Data acquisition and off-line analyses required Patchmaster/Fitmaster software (HEKA Electronik, Lamprecht, Germany) and Origin 8.5.1 (Origin Lab, Northampton, MA, USA).

Assay [2] addresses T1, wildtype rat TRPV2 (Rattus norvegicus, UniProt Q9WUD2).
T1 sequence (Q9WUD2 1-761): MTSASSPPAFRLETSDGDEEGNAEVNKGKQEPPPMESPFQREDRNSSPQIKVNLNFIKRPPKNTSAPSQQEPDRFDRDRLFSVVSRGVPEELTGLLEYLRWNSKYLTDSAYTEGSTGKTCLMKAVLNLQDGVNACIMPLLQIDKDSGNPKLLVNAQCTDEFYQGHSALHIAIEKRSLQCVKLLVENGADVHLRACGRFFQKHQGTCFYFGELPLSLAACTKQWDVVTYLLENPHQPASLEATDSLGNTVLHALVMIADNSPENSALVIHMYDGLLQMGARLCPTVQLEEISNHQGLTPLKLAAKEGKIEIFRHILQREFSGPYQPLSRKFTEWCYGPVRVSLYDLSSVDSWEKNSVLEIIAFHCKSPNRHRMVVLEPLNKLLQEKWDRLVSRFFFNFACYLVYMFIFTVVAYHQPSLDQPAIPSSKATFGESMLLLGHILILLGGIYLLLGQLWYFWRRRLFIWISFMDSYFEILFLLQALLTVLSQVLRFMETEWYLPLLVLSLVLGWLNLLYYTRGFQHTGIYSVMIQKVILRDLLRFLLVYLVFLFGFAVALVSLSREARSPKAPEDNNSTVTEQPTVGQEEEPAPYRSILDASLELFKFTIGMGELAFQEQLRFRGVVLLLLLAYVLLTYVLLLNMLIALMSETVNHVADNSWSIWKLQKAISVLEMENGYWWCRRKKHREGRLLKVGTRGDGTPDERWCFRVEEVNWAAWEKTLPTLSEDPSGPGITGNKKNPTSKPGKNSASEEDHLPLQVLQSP
The procedure: as §1, §2

Assay [3] deals with Tyr525Ala rat TRPV2 (Rattus norvegicus, UniProt Q9WUD2, Y525A). To be noted: with either 2-APB or heat. The procedure:
as §1, §2

In assay [4] the target is His521Ala rat TRPV2 (Rattus norvegicus, UniProt Q9WUD2, H521A). The procedure:
as §1, §2

The target of assay [5] is His521Asn rat TRPV2 (Rattus norvegicus, UniProt Q9WUD2, H521N). The procedure:
as §1, §2

For assay [6], the target named is Thr522Ala rat TRPV2 (Rattus norvegicus, UniProt Q9WUD2, T522A). The protocol: as §1, §2
Assay [7] addresses Arg535Lys rat TRPV2 (Rattus norvegicus, UniProt Q9WUD2, R535K). The protocol:
as §1, §2

Assay [8] concerns the target His521Ala/Arg539Lys rat TRPV2 (Rattus norvegicus, UniProt Q9WUD2, H521A/R539K). The procedure:
as §1, §2

In assay [9] the target is T1, wildtype rat TRPV2. The experiment in a line: Whole-cell patch recordings, current density with 2-APB alone and 2-APB co-applied with CBD. To be noted: for current density: Mean ± SEM, N = 7. Also on record: expressed in transfected cells; host or cells: HEK293T. In kind it is cell-based. The protocol: as §1, §2
Where [10] appears, read: HEK293T, held at −60 mV, mean ± S.E.M.

“And” between values parts separate entries of the source, which are not always exact repeats. Equal entries are not always repeated.

Sequence of Arg539Lys rat TRPV2 (Q9WUD2 whole entry R539K): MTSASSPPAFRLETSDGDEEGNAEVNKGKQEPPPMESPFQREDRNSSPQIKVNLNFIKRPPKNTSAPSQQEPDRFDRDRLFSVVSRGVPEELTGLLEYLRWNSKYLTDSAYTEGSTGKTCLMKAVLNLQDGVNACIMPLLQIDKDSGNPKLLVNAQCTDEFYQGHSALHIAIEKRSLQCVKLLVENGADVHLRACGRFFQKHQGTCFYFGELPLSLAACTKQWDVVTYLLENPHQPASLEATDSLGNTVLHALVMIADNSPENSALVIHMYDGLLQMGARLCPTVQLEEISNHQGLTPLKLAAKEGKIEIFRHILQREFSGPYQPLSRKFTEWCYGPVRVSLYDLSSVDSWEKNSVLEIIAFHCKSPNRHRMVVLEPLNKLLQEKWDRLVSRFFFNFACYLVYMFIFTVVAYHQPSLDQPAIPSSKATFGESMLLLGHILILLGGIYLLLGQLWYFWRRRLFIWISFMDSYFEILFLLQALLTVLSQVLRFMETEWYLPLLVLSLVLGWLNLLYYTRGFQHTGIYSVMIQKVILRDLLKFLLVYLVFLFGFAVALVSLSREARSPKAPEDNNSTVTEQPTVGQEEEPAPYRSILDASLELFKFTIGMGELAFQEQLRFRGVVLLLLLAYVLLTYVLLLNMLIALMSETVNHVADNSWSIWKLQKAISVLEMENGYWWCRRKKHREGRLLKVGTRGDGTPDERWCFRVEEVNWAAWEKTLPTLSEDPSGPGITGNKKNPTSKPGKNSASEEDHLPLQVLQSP
Sequence of His521Ala/Arg539Lys rat TRPV2 (Q9WUD2 whole entry H521A/R539K): as the sequence (Q9WUD2 whole entry R539K) above, with H521A counted along it
Sequence of His521Asn rat TRPV2 (Q9WUD2 whole entry H521N): as the sequence (Q9WUD2 whole entry R539K) above, with H521N, K539R counted along it
Sequence of Thr522Ala rat TRPV2 (Q9WUD2 whole entry T522A): as the sequence (Q9WUD2 whole entry R539K) above, with T522A, K539R counted along it
Sequence of His521Ala rat TRPV2 (Q9WUD2 whole entry H521A): as the sequence (Q9WUD2 whole entry R539K) above, with H521A, K539R counted along it
Sequence of Arg535Lys rat TRPV2 (Q9WUD2 whole entry R535K): as the sequence (Q9WUD2 whole entry R539K) above, with R535K, K539R counted along it
Sequence of Tyr525Ala rat TRPV2 (Q9WUD2 whole entry Y525A): as the sequence (Q9WUD2 whole entry R539K) above, with Y525A, K539R counted along it

`NCCOB(c1ccccc1)c1ccccc1` [2-APB, 2-aminoethoxydiphenyl borate]: the Hill coefficient (in general, a measure of the steepness of the concentration-response curve) came to 5.6 ± 1.1 in [1] (Arg539Lys); 3.0 ± 0.2 in assay [2] (wildtype); 3.3 ± 0.3 in assay [4]; 4.3 ± 0.3 in assay [5]; 3.0 ± 0.3 in assay [6]; 3.3 ± 0.5 in [7]. This molecule also had a Hill coefficient in assay [8] (His521Ala/Arg539Lys) of 5.2 ± 0.6. Also, the EC50 (in general, the concentration giving half of the maximal effect) came to 683 ± 78 µM in [1] (Arg539Lys, HEK293T, held at −60 mV, mean ± S.E.M.); 322 ± 27 µM in [2] (wildtype rat TRPV2, HEK293T, held at −60 mV, mean ± S.E.M.); 991 ± 131 µM in assay [4] (setting [10]); 742 ± 14 µM in [5] (HEK293T, held at −60 mV); 232 ± 43 µM in assay [6] (setting [10]); 79 ± 11 µM in assay [7] (setting [10]). This molecule returned an EC50 in assay [8] (His521Ala/Arg539Lys, HEK293T, held at −60 mV, mean ± S.E.M.) of 1750 ± 125 µM. Moreover, the “Current (minus Leak)” value in assay [1] (rTRPV2 - R539K, 2-APB 50µM, single cell) was 6.3 and 7.05 and 6.6. Moreover, the membrane currents evoked result in assay [3] is “could not evoke any membrane currents”. Besides, the “decrease in 2-APB sensitivity” value in assay [8] (double mutant compared to the wildtype TRPV2) is reported as “fivefold”. The current density is recorded as 0.98 ± 0.1 pA/pF in assay [9] (2-APB alone 10 μM), 2.8 ± 0.3 pA/pF in assay [9] (2-APB alone 30 μM) and 24.9 ± 3.7 pA/pF in [9] (2-APB alone 100 μM). Also, in [9] (2-APB alone 10 µM, single cell), the current was 12.35 and 14.18 and 12.95 and 20 and 11.76 and 11.18.

The values above are taken from publication PMC9051106, “Structural insights into TRPV2 activation by small molecules” (Nature Communications, 2022).
